Values joined by “and” are separate entries in the source; they are usually repeats but may differ in a detail not shown here. Identical values can stand only once. Marks after values point to notes of the source that are not given here.
Key:
mice [1] = test: Spontaneous locomotor activity (photoresistor actometers); format: in vivo, mouse
Procedure: (§1) Male CD-1 mice weighing 18–24 g were used in the in vivo experiment. The animals were kept at room temperature of 20 ± 2 °C under standard conditions (12:12 h light-dark cycle, standard pellet diet, tap water). All the experiments were performed between 8 a.m. and 3 p.m. For the experiments, the animals were selected in a random way and sacrificed by cervical dislocation immediately after the assay. The experimental protocol was approved by the Local Ethics Commission for Animal Experiments of the Jagiellonian University in Cracow, and all experiences were conducted in accordance with the 1996 NIH Guide for the Care and Use of Laboratory Animals.
(§2) The tested compounds 12 (N-[{4-(3,4-dichlorophenyl)-piperazin-1-yl}-methyl]-3-methylpyrrolidine-2,5-dione), 13 (N-[{4-(3-trifluoromethylphenyl)-piperazin-1-yl}-methyl]-3-methylpyrrolidine-2,5-dione), 15 (N-[{4-(3-methylphenyl)-piperazin-1-yl}-methyl]-3-methylpyrrolidine-2,5-dione), 23 (N-[{4-(3,4-dichlorophenyl)-piperazin-1-yl}-methyl]-pyrrolidine-2,5-dione), and 24 (N-[{4-(3-trifluoromethylphenyl)-piperazin-1-yl}-methyl]-pyrrolidine-2,5-dione) were synthesized at the Department of Medicinal Chemistry, Jagiellonian University Medical College in Cracow (Scheme 1). The synthesis of the investigated compounds was described earlier (Rybka et al. [2014]). The investigated compounds were suspended in a 0.5 % aqueous solution of methylcellulose (Loba Chemie, Germany). Lacosamide (Vimpat, UCB Pharma, Belgium), pilocarpine (Sigma-Aldrich, Germany), scopolamine butylbromide (Sigma-Aldrich, Germany), and formaldehyde (POCh, Poland) were dissolved in distilled water. Agents were administered intraperitoneally (i.p.) at a volume of 0.1 ml/10 g. Control animals were administered an equivalent volume of vehicle (0.5 % aqueous solution of methylcellulose) via the same route as the test compounds.
Locomotor activity was measured with photoresistor actometers (Ugo Basile, Italy) connected to a counter for the recording of light-beam interruptions. Mice were individually placed in plastic cages for 30 min habituation period, and then the number of light-beam crossings was counted for a 30-min session. The cages were cleaned up with 70 % ethanol after each mouse.

mice [2] = test: Formalin hind paw test; format: in vivo, mouse; conditions: dose 30 mg/kg i.p.; for reduction of the duration of the licking response, first (neurogenic) phase: 0–5 min after 5 % formalin; for antinociceptive effect (reduction of licking response), second (late) phase: 15–30 min after 5 % formalin
Procedure: as §1, §2
Antinociceptive activity in the formalin hind paw test was examined according to Laughlin et al. ([2002]). Twenty microliters of a 5 % formalin solution was injected intraplantarly (i.pl.) into the right hind paw of the mouse. […] Time (in seconds) spent on licking or biting the injected hind paw in selected intervals, 0–5 and 15–30 min, was measured in each experimental group and was an indicator of nociceptive behavior. In mice, intraplantarly injection of diluted formalin produces a biphasic nocifensive behavioral response (i.e., licking or biting the injected hind paw). The acute nociceptive phase lasts for the first 5 min, whereas the second inflammatory phase occurs between 15 and 30 min after formalin injection.

mice [3] = test: Electroconvulsive threshold test (MEST test); format: in vivo, mouse
mice [4] = test: Hot plate test; format: in vivo, mouse; conditions: dose 30 mg/kg i.p.; for latency time to pain reaction: mean ± SEM, vehicle 27.51 ± 1.36 s, cutoff 60 s
Procedure: as §1, §2
In the hot plate test, the mice were i.p. pretreated either with the test compound or vehicle before placing the animal on the hot plate apparatus (Panlab/Harvard Apparatus, Spain). This apparatus has an electrically heated surface and is supplied with a temperature controller that maintains the temperature at 55–56 °C. The time to the first reaction (licking or jumping) of mice to a nociceptive stimulus was recorded. The cutoff time was established to 60 s to avoid paw tissue damage (Sałat et al. [2014]).

V. harveyi BB7XM [5] = test: Vibrio harveyi antimutagenicity assay (vs NQNO), BB7XM strain; format: cell-based; conditions: for Antimutagenicity BB7XM number of revertants Mean ± SD: test compound plus NQNO 40 ng/ml (NQNO line: mutagen only); for Antimutagenicity BB7XM Inhib. (%) of mutagenicity: test compound plus NQNO 40 ng/ml, 25–40 % moderate, 40 % or more strong
Procedure: (§3) Two V. harveyi strains were used in the experiments: wild-type BB7 and genetically modified BB7XM (the UV-hypersensitive strain bearing plasmid pAB91273), which were described previously by Czyż et al. ([2000]).
(§4) Antimutagenicity assay was performed according to previously described procedures (Czyż et al. [2002]; Pękala et al. [2013]). […] This was calculated as follows: Inhibition (%) = 100 − [(R1/R2) × 100], where R1 is the number of revertants per plate induced by test compound plus mutagen and R2 is the number of revertants in the plate containing only the mutagen (Słoczyńska et al. [2010]). No antimutagenic effect was considered when the inhibition was less than 25 %; a moderate effect for an inhibition value between 25 and 40 % and a strong antimutagenicity were recorded for inhibition higher than 40 % (Gulluce et al. [2010]).

mice [6] = test: Pilocarpine-induced seizure test; format: in vivo, mouse
Procedure: as §1, §2
The experimental procedure was originally described by Turski et al. ([1987]). Seizures were induced in mice by i.p. injection of pilocarpine at a dose of 400 mg/kg. Forty-five minutes before pilocarpine, animals were also pretreated with scopolamine butylbromide (1 mg/kg, i.p.) to reduce peripheral autonomic side effects and masticatory and stereotyped movements (Kowalczyk et al. [2014]). Direct observation was performed for 60 min to monitor the latency time to the onset of the limbic seizures, characterized by a subsequent development of behavioral symptoms, such as tremor, head bobbing, and myoclonic movements of the forelimbs progressing to recurrent myoclonic convulsions with rearing, salivation, falling, and status epilepticus (Łuszczki et al. [2008]; Turski [2000]).

V. harveyi BB7 [7] = test: Vibrio harveyi mutagenicity assay, BB7 strain; conditions: 40 ng/ml; for Mutagenicity BB7 M.I. (mutagenic index): positive assay when M.I. ≥ 2
Procedure: as §3
(§5) Mutagenicity assay was performed as described previously (Czyż et al. [2000]). All experiments were carried out in triplicate and the results were expressed as mutagenic index (M.I. = the number of revertant colonies induced in the tested sample/the number of spontaneous revertants in the negative control) (Gulluce et al. [2010]).

V. harveyi BB7 [8] = test: Vibrio harveyi antimutagenicity assay (vs NQNO), BB7 strain; format: cell-based; conditions: for inhibition of NQNO-induced mutagenicity in BB7 strain (in words): NQNO 40 ng/ml; for Antimutagenicity BB7 number of revertants Mean ± SD: test compound plus NQNO 40 ng/ml (NQNO line: mutagen only); for Antimutagenicity BB7 Inhib. (%) of mutagenicity: test compound plus NQNO 40 ng/ml, 25–40 % moderate, 40 % or more strong
Procedure: as §3, §4

V. harveyi BB7XM [9] = test: Vibrio harveyi mutagenicity assay, BB7XM strain; conditions: 40 ng/ml; for Mutagenicity BB7XM M.I. (mutagenic index): positive assay when M.I. ≥ 2
Procedure: as §3, §5

[10] = tested on: L-type calcium channel (dihydropyridine site); test: L-type Ca channel (dihydropyridine site) [3H]nitrendipine binding assay; conditions: rat cerebral cortex
[11] = dose 30 mg/kg i.p., 30-min session
[12] = dose 30 mg/kg i.p., 4 h before the test, value with 95 % confidence interval
[13] = dose 100 mg/kg i.p., 4 h before pilocarpine 400 mg/kg
[14] = dose 100 mg/kg i.p., 4 h before pilocarpine

Compound | influence on locomotor activity (number of crossings, in words) (mice [1]; [11]) | reduction of the duration of the licking response, first (neurogenic) phase (mice [2]) | antinociceptive effect (reduction of licking response), second (late) phase (mice [2]) | CS50 (mA) (CI) (mice [3]; [12]) | latency time to pain reaction (mice [4]) | Antimutagenicity BB7XM number of revertants Mean ± SD (V. harveyi BB7XM [5]) | Antimutagenicity BB7XM Inhib. (%) of mutagenicity (V. harveyi BB7XM [5]) | Latency to status epilepticus (s) ± SEM (mice [6]; [13]) | Mutagenicity BB7 number of revertants Mean ± SD (V. harveyi BB7 [7]) | Mutagenicity BB7 M.I. (mutagenic index) (V. harveyi BB7 [7]) | inhibition of NQNO-induced mutagenicity in BB7 strain (in words) (V. harveyi BB7 [8]) | Antimutagenicity BB7 number of revertants Mean ± SD (V. harveyi BB7 [8]) | Antimutagenicity BB7 Inhib. (%) of mutagenicity (V. harveyi BB7 [8]) | Mutagenicity BB7XM number of revertants Mean ± SD (V. harveyi BB7XM [9]) | Mutagenicity BB7XM M.I. (mutagenic index) (V. harveyi BB7XM [9]) | prolongation of latency time to pain reaction vs vehicle (mice [4]) | Anticonvulsant effect (%) (prolongation of latency time to seizures vs vehicle) (mice [6]; [14]) | also measured
CC1CC(=O)N(CN2CCN(c3cccc(C(F)(F)F)c3)CC2)C1=O (stereo not shown) [Compound 13, N-[{4-(3-trifluoromethylphenyl)-piperazin-1-yl}-methyl]-3-methylpyrrolidine-2,5-dione] | significantly reduced the number of crossings | 79% | 89% | 9.37 (5.47–16.07)* mA | 56.03 ± 1.75 s | 20 ± 4 | (16) % | 296.7 ± 9.63 s | 22 ± 3 | 1.4 | moderate inhibitors | 25 ± 4 | (35) % | 20 ± 5 | 1.7 | – | – | –
O=C1NC(=O)C(c2ccccc2)(c2ccccc2)N1 [Phenytoin, reference compound] | – | – | – | – | – | – | – | – | – | – | – | – | – | – | – | – | – | % inhibition of control specific binding ([10]; 10 μM): 6.6%; % inhibition of control specific binding ([10]; 100 μM): 57.8%
O=C1CCC(=O)N1CN1CCN(c2cccc(C(F)(F)F)c2)CC1 [Compound 24, N-[{4-(3-trifluoromethylphenyl)-piperazin-1-yl}-methyl]-pyrrolidine-2,5-dione] | significantly reduced the number of crossings | 62% | 94% | 14.01 (9.05–21.70)*** mA | 47.23 ± 3.77 s | 29 ± 3 | (0) % | 346.7 ± 25.92 s | 25 ± 4 | 1.6 | weakly suppressed | 31 ± 5 | (18) % | 19 ± 1 | 1.6 | 72% | 1.2% | increase of electroconvulsive threshold (ECT) vs vehicle (mice [3]; dose 10 mg/kg i.p., 4 h before the test): 68%; CS50 (mA) (CI) (mice [3]; dose 10 mg/kg i.p., 4 h before the test, value with 95 % confidence interval): 11.11 (8.12–15.20)*** mA; increase of electroconvulsive threshold (ECT) vs vehicle (mice [3]; dose 30 mg/kg i.p., 4 h before the test): 114%
COC[C@@H](NC(C)=O)C(=O)NCc1ccccc1 [Lacosamide, reference compound] | significant decrease of locomotor activity | 69% | 90% | – | – | – | – | – | – | – | – | – | – | – | – | – | – | CS50 (mA) (CI) (mice [3]; dose 10 mg/kg i.p., 30 min before the test, 10 mg/kg): >25 mA; CS50 (mA) (CI) (mice [3]; dose 10 mg/kg i.p., 30 min before the test, listed as lacosamide, 10 mg/kg): above 25 mA; antinociceptive activity in the hot plate test (in words) (mice [4]): significantly prolonged the latency time; Anticonvulsant effect (%) (prolongation of latency time to seizures vs vehicle) (mice [6]; dose 30 mg/kg i.p., 30 min before pilocarpine): 12.8%; Latency to status epilepticus (s) ± SEM (mice [6]; dose 30 mg/kg i.p., 30 min before pilocarpine 400 mg/kg): 382.1 ± 22.86 s; Latency to status epilepticus (s) ± SEM (mice [6]; dose 40 mg/kg i.p., 30 min before pilocarpine 400 mg/kg): 507.7 ± 52.11 s; Anticonvulsant effect (%) (prolongation of latency time to seizures vs vehicle) (mice [6]; dose 40 mg/kg i.p., 30 min before pilocarpine, 40 mg/kg): 50% and 49.8%
N-[{4-(3-methylphenyl)-piperazin-1-yl}-methyl]-3-methylpyrrolidine-2,5-dione [Compound 15] | – | 52% | 66% | 8.11 (7.12–9.24)*** mA | 47.12 ± 6.14 s | – | – | 406.0 ± 59.77 s | – | – | – | – | – | – | – | 71% | 18.5% | influence on locomotor activity (number of crossings, in words) (mice [1]; mouse, in vivo, ip, 30 mg/kg): significantly reduced the number of crossings

From article PMC4749642, “Evaluation of anticonvulsant and antinociceptive properties of new N-Mannich bases derived from pyrrolidine-2,5-dione and 3-methylpyrrolidine-2,5-dione” (Naunyn-Schmiedeberg's Archives of Pharmacology, 2015)
